Test results from US11919867B1, “5-(4,5-bis(4-bromophenyl)-2-(4-methoxyphenyl)-1H-imidazol-1-yl)pentanoic acid as an antimicrobial compound” (KING FAISAL UNIVERSITY, priority 2023, dated 2024).

Legend:
Type in all cases: cell-based
Bacillus cereus = test: Agar plate disc-diffusion, antibacterial inhibition zone; conditions: nutrient agar, 37° C., 48 hours, DMSO control zone subtracted
Method: (§1) The agar plate disc-diffusion method was applied. […] The discs were then placed onto the surface of agar plates (nutrient agar for bacteria and Sabouraud's dextrose agar for fungi) seeded with the test organism. Each plate contained 15 mL of the agar medium, previously seeded with 0.2 mL of the broth culture of each organism pregrown for 18 hours. The plates were incubated at 37° C. for 48 hours, and 72 hours for fungi. The inhibition zones was measured in mm. Discs impregnated with DMSO were used as a control, and its inhibition zone was subtracted from the tested compound actual inhibition zone.

Staphylococcus aureus = test: as above; conditions: nutrient agar, 37° C., 48 hours, DMSO control zone subtracted
Method: as §1

Escherichia coli = test: as above; conditions: nutrient agar, 37° C., 48 hours, DMSO control zone subtracted
Method: as §1

Pseudomonas aeruginosa = test: as above; conditions: nutrient agar, 37° C., 48 hours, DMSO control zone subtracted
Method: as §1

Aspergillus flavus = test: Agar plate disc-diffusion, antifungal inhibition zone; conditions: Sabouraud's dextrose agar, 72 hours, DMSO control zone subtracted
Method: as §1

[1] = system: Chrysosporium keratinophilum; test: as above; conditions: Sabouraud's dextrose agar, 72 hours, DMSO control zone subtracted
Method: as §1

[2] = A = concentration of comp. = 10,000 μL
[3] = B = concentration of comp. = 30,000 μL
[4] = C = concentration of comp. = 50,000 μL

SMILES: COc1ccc(-c2nc(-c3ccc(Br)cc3)c(-c3ccc(Br)cc3)n2CCCCC(=O)O)cc1 [V, 5-(4,5-bis(4-bromophenyl)-2-(4-methoxyphenyl)-1H-imidazol-1-yl)pentanoic acid]
- inhibition zone, Bacillus Cereus, A (Bacillus cereus; [2]): 28 mm
- inhibition zone, Bacillus Cereus, B (Bacillus cereus; [3]): 29 mm
- inhibition zone, Bacillus Cereus, C (Bacillus cereus; [4]): 39 mm
- inhibition zone, Staphylococcus aureus, A (Staphylococcus aureus; [2]): 15 mm
- inhibition zone, Staphylococcus aureus, B (Staphylococcus aureus; [3]): 22 mm
- inhibition zone, Staphylococcus aureus, C (Staphylococcus aureus; [4]): 31 mm
- inhibition zone, Escherichia coli, A (Escherichia coli; [2]): 30 mm
- inhibition zone, Escherichia coli, B (Escherichia coli; [3]): 40 mm
- inhibition zone, Escherichia coli, C (Escherichia coli; [4]): 55 mm
- inhibition zone, Pseudomonas aeruginosa, A (Pseudomonas aeruginosa; [2]): 26 mm
- inhibition zone, Pseudomonas aeruginosa, B (Pseudomonas aeruginosa; [3]): 29 mm
- inhibition zone, Pseudomonas aeruginosa, C (Pseudomonas aeruginosa; [4]): 40 mm
- inhibition zone, Aspergillus flavus, A (Aspergillus flavus; [2]): 22 mm
- inhibition zone, Aspergillus flavus, B (Aspergillus flavus; [3]): 25 mm
- inhibition zone, Aspergillus flavus, C (Aspergillus flavus; [4]): 33 mm
- inhibition zone, Chrysosporium keratinophilum, A [1, 2]: 26 mm
- inhibition zone, Chrysosporium keratinophilum, B [1, 3]: 27 mm
- inhibition zone, Chrysosporium keratinophilum, C [1, 4]: 45 mm
